Measurements reported in US20240148722A1, “SMALL MOLECULES THAT BIND TO TDP-43 FOR THE TREATMENT OF ALS AND RELATED DISORDERS” (Biohaven Therapeutics Ltd., priority 2021, published 2024).

target: TDP-43 1-260 (Homo sapiens, UniProt Q13148); experiment: TDP-43 alpha-screen assay with bt-TAR32; assay type: binding; conditions: bt-TAR32 0.125 nM; 3 h at room temperature; read-out: Activity (μM) in the TDP-43-DNA alpha-screen assay
Sequence (Q13148 1-260): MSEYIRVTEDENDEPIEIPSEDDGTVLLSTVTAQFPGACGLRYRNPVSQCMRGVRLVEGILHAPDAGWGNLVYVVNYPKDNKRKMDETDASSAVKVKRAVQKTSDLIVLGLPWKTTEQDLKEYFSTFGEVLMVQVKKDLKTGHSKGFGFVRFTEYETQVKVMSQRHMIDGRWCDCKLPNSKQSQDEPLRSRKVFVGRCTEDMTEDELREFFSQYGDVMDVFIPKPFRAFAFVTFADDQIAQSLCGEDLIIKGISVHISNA
Protocol: Alpha-screen assay. […] Briefly, assays contained TDP-43 1-260 (15 ng/mL, 0.27 nM), 10 mg/mL of both streptavidin donor beads and anti-GST acceptor beads with various concentrations of bt-TAR32 (˜18 to +14 in the HIV1 LTR) and test compound in a final volume of 20 mL of 25 mM Tris, 0.1% CHAPS, pH 7.4 in white, opaque low volume 384-well plates. After 3 h incubation at room temperature, the AlphaScreen signal was measured using a Synergy 2 plate reader (Biotek, Winooski, VT). […] Nonspecific binding was determined in the presence of 10 mM bt-TDP43 and was less than 10% of total binding. IC50 values were obtained from nonlinear regression fits of the data to a one-site binding model using Graph Pad Prism, version 5.0 (GraphPad Software, San Diego, CA). Comparison of competitive inhibition and mixed type inhibition models were evaluated using the F-test on global fits of the data also in Graph Pad Prism, version 5.0.

Row | IC50 | Compound
1 | 0.09 µM | COc1ccc(-c2cc(NCC3CCN(CC4CCNC4)CC3)cc(-c3ccc(N4CCN(C)CC4)cc3)n2)cc1 (centres unmarked) [Example 25]
2 | 3.56 µM | COc1ccc(-c2cc(NCC3CCNC3)cc(-c3ccc(N4CCN(C)CC4)cc3)n2)cc1 (centres unmarked) [Example 55]
3 | 0.2 µM | NCCCNc1cc(-c2ccc(N3CCNCC3)cc2)nc2ccsc12 [Example 86]
4 | 0.08 µM | COc1ccc(-c2cc(NCC3CCN(C4CCNCC4)C3)cc(-c3ccc(N4CCN(C)CC4)cc3)n2)cc1 (centres unmarked) [Example 22]
5 | 4.64 µM | COc1ccc(-c2cc(NCCCN(C)CCCN)cc(-c3c(C)noc3C)n2)cc1 [Example 47]
6 | 0.49 µM | Cis-N1-(2-(3-(2-(pyrrolidin-1-yl)ethoxy)phenyl)-6-(4-methoxyphenyl)pyridin-4-yl)cyclobutane-1,3-diamine [Example 94]
7 | 0.57 µM | COc1ccc(-c2cc(NCCCN(C)CCCN)cc(CCC3CC3)n2)cc1 [Example 71, N-{3-[(3-aminopropyl)(methyl)amino]propyl}-2-(2-cyclopropylethyl)-6-(4-methoxyphenyl)pyridin-4-amine]
8 | 0.13 µM | COc1ccc(-c2cc(NCCCN(C)CCCN)cc(-c3ccc(N4CCN(C)CC4)cc3)n2)cc1 [Example 32]
9 | 2.85 µM | COc1ccc(-c2cc(NCC3CCCN3)cc(-c3ccc(N4CCC(C)CC4)cc3)n2)cc1 (centres unmarked) [Example 57]
10 | 0.89 µM | COc1ccc(-c2cc(NC3CCNCC3F)cc(-c3ccc(N4CCN(C)CC4)cc3)n2)cc1 (centres unmarked) [Example 68]
11 | 5.58 µM | COc1ccc(-c2cc(NCCCN(C)CCCN)cc(-c3cnc(N4CCOCC4)s3)n2)cc1 [Example 52, N^1-(3-aminopropyl)-N^3-(2-(4-methoxyphenyl)-6-(2-morpholinothiazol-5-yl)pyridin-4-yl)-N^1-methylpropane-1,3-diamine]
12 | 2.85 µM | COc1ccc(-c2cc(NC3CC4CCC(C3)N4C)cc(-c3ccc(N4CCN(C)CC4)cc3)n2)cc1 (centres unmarked) [Example 58]
13 | 0.11 µM | CN(C)CCCNc1cc(-c2ccc(OCCCN3CCCC3)cc2)nc2ccccc12 [Example 82]
14 | 0.06 µM | CN(CCCN)CCCNc1cc(C#CC2CCNCC2)nc(-c2ccc(N3CCNCC3)cc2)c1 [Example 11, N-{3-[(3-aminopropyl)(methyl)amino]propyl}-2-[4-(piperazin-1-yl)phenyl]-6-[2-(piperidin-4-yl)ethynyl]pyridin-4-amine]
15 | 2.4 µM | COc1ccc(-c2cc(N[C@H]3C[C@H](N)C3)cc(-c3ccc(CN(C)CCN(C)C)o3)n2)cc1 [Example 96, N1-{2-[5-({[2-(dimethylamino)ethyl](methyl)amino}methyl)furan-2-yl]-6-(4-methoxyphenyl)pyridin-4-yl}cyclobutane-1,3-diamine]
16 | 0.05 µM | COc1ccc(-c2cc(NCCCN(C)CCCN)cc(-c3cccc(N4CCNCC4)c3)n2)cc1 [Example 7, N-{3-[(3-aminopropyl)(methyl)amino]propyl}-2-(4-methoxyphenyl)-6-[3-(piperazin-1-yl)phenyl]pyridin-4-amine]
17 | 0.13 µM | COc1ccc(-c2cc(NCCCN(C)CCCN)cc(-c3ccc(-c4ccncc4)cc3)n2)cc1 [Example 33]
18 | 0.55 µM | COc1ccc(-c2cc(NCCCN3CCNCC3)cc(-c3ccc(N4CCN(C)CC4)cc3)n2)cc1 [Example 72]
19 | 1.09 µM | N^1-(4-(4-methoxyphenyl)-6-(4-(piperazin-1-yl)phenyl)pyridin-2-yl)-N^3,N^3-dimethylpropane-1,3-diamine [Example 79]
20 | 0.74 µM | COc1ccc(-c2cc(NCCCN(C)CCCN)cc(-c3ccc(N4CCCCC4)cc3)n2)cc1 [Example 69]
21 | 0.07 µM | CN(CCCN)CCCNc1cc(-c2ccc(CN3CCNCC3)cc2)nc(-c2ccc(N3CCNCC3)cc2)c1 [Example 16]
22 | 0.15 µM | NCCCNc1n[nH]c2cc(-c3ccc(N4CCNCC4)cc3)ccc12 [Example 87]
23 | 1.87 µM | COc1ccc(-c2cc(NCCCN3CCCCC3)cc(C3=CCNCC3)n2)cc1 [Example 61]
